Laboratory results published in paper PMC12040169 (PLOS Biology, 2025).

Experiment: in vitro
Details: human, hela cells, % viability

Compound	viability at 28.5 h, 10 µM [%]	viability at 28.5 h, 10 µM (bulk resorufin, single well) [%]
COc1ccc(Nc2cc(-c3cccc(N)c3)ncn2)c(C)c1 [CBK091035]	97.1	–
COc1ccc(Nc2cc(-c3cc4ccccc4o3)ncn2)c(C)c1 [CBK091040]	87.7	–
COc1ccc(Nc2cc(-c3ccc(SC)cc3)ncn2)c(C)c1 [CBK091042]	89.2	–
CC(=O)c1ccc(-c2cc(Nc3ccc(O)cc3C)ncn2)s1 [CBK091052]	115	–
Cc1cc(O)ccc1Nc1cc(-c2ccc3c(c2)OCO3)ncn1 [CBK091053]	92.6	–
Cc1cc(O)ccc1Nc1cc(-c2cc3ccccc3s2)ncn1 [CBK091057]	87	–
O=C(CN1CCN(c2cc(-c3ccsc3)ncn2)CC1)N1CCCC1 [CBK091074]	99.9	–
FC(F)(F)c1cc(-c2cc(N3CCN(c4ccccn4)CC3)ncn2)cc(C(F)(F)F)c1 [CBK091082]	94.5	–
Clc1ccc(-c2cc(N3CCN(c4ccccn4)CC3)ncn2)cc1 [CBK091085]	112	–
CC(C)Cc1ccc(-c2cc(NCCc3ccccn3)ncn2)cc1 [CBK091088]	99.6	–
Nc1ccc(C(=O)Nc2ccc(Nc3cc(-c4ccco4)ncn3)cc2)cc1 [CBK091099]	96.5	–
CC(=O)Nc1ccc(-c2cc(Nc3ccc(NC(=O)c4ccc(N)cc4)cc3)ncn2)cc1 [CBK091103]	97	–
CC(C)(C)OC(=O)NCc1ccc(-c2cc(N3CCN(C(=O)c4ccco4)CC3)ncn2)cc1 [CBK091107]	98.3	–
O=C(c1ccco1)N1CCN(c2cc(-c3cc4ccccc4o3)ncn2)CC1 [CBK091114]	102	–
CN(C(=O)CN1CCN(c2cc(-c3cc(C(F)(F)F)cc(C(F)(F)F)c3)ncn2)CC1)c1ccccc1 [CBK091125]	103	–
CN(C(=O)CN1CCN(c2cc(-c3cc4ccccc4o3)ncn2)CC1)c1ccccc1 [CBK091128]	94	–
COc1ccccc1-c1cc(N2CCN(CC(=O)N(C)c3ccccc3)CC2)ncn1 [CBK091136]	99	–
CC(C)(C)OC(=O)Nc1ccc(Nc2cc(-c3ccc(F)c(F)c3)ncn2)cc1 [CBK091143]	90.1	–
Cc1ccc(Nc2cc(-c3cccc(N)c3)ncn2)cc1NS(C)(=O)=O [CBK091145]	99.1	–
Cc1ccc(Nc2cc(-c3cccnc3)ncn2)cc1NS(C)(=O)=O [CBK091147]	91.2	–
Cc1ccc(Nc2cc(-c3cc4ccccc4o3)ncn2)cc1NS(C)(=O)=O [CBK091148]	93.6	–
Cc1ccc(Nc2cc(-c3cccc4cccnc34)ncn2)cc1NS(C)(=O)=O [CBK091152]	92.4	–

Compound	viability at 28.5 h, 10 µM [%]	viability at 28.5 h, 10 µM (bulk resorufin, single well) [%]
CN(C)c1ccc(-c2cc(N3CCN(S(=O)(=O)c4ccc(Cl)cc4)CC3)ncn2)cc1 [CBK091158]	93.5	–
O=S(=O)(c1ccc(Cl)cc1)N1CCN(c2cc(-c3ccco3)ncn2)CC1 [CBK091161]	111	–
c1ccc(-c2cccc(-c3cc(N4CCN(CCN5CCCC5)CC4)ncn3)c2)cc1 [CBK091164]	99.7	–
c1ccc(-c2ccc(-c3cc(N4CCN(CCN5CCCC5)CC4)ncn3)cc2)cc1 [CBK091165]	99	–
c1ccc2sc(-c3cc(N4CCN(CCN5CCCC5)CC4)ncn3)cc2c1 [CBK091172]	89.3	–
COc1ccc(-c2cc(N3CCN(CCN4CCCC4)CC3)ncn2)cc1OC [CBK091173]	94.5	–
COc1cc(CNc2cc(-c3ccc(N4CCOCC4)cc3)ncn2)cc(OC)c1OC [CBK091174]	93.9	–
COc1cc(CNc2cc(-c3cccc4oc5ccccc5c34)ncn2)cc(OC)c1OC [CBK091177]	90.3	–
COc1cc(CNc2cc(-c3cccc4cccnc34)ncn2)cc(OC)c1OC [CBK091179]	76.6	–
Nc1cccc(-c2cc(Nc3ccc(C4CCCCC4)cc3)ncn2)c1 [CBK091191]	88.8	–
CCN(CC)CCN1CCN(c2cc(-c3cccc4ccccc34)ncn2)CC1 [CBK091196]	99.9	–
CCN(CC)CCN1CCN(c2cc(-c3ccc(SC)cc3)ncn2)CC1 [CBK091203]	93.3	–
c1ccc(CCCNc2ncc(-c3ccc(N4CCOCC4)cc3)n3ccnc23)cc1 [CBK091223]	112	–
CN1CCN(c2ncc(-c3ccc(N4CCOCC4)cc3)n3ccnc23)CC1 [CBK091226]	103	–
COc1ccccc1-c1cnc(Nc2ccc(N3CCOCC3)cc2)c2nccn12 [CBK091230]	99.9	–
CC(=O)Nc1cccc(-c2cnc(Nc3ccc(N4CCOCC4)cc3)c3nccn23)c1 [CBK091235]	99.9	–
CN(C)C(=O)c1cccc(-c2cnc(N3CCOCC3)c3nccn23)c1 [CBK091261]	101	–
CC(C)CNc1ncc(-c2ccc(N3CCOCC3)cc2)n2ccnc12 [CBK091273]	101	–
CN(Cc1ccccc1)c1ncc(-c2ccc(N3CCOCC3)cc2)n2ccnc12 [CBK091275]	99.7	–
CN(C)c1ccccc1-c1cnc(N2CCOCC2)c2nccn12 [CBK091280]	90.7	–
Cc1csc(-c2cnc(N3CCOCC3)c3nccn23)c1 [CBK091287]	87.5	–
c1ccc(Cn2cc(-c3cnc(N4CCOCC4)c4nccn34)cn2)cc1 [CBK091289]	79.7	–

Compound	viability at 28.5 h, 10 µM [%]	viability at 28.5 h, 10 µM (bulk resorufin, single well) [%]
c1ccc2cc(-c3cnc(N4CCOCC4)c4nccn34)ccc2c1 [CBK091307]	94.1	–
CC(=O)N[C@H](Cc1c[nH]c2ccccc12)C(=O)N1CCN(c2ccc(C(F)(F)F)cc2)CC1 [CBK091314]	94.5	–
CC(=O)[C@H]1C[C@@H](CC(=O)N2CCC(C(C)=O)(c3ccccc3)CC2)C1(C)C [CBK091323]	–	109
CCOC(=O)CCCCCCC(=O)N1CCN(c2ccc(C(F)(F)F)cc2)CC1 [CBK091327]	107	–
CC(=O)[C@H]1C[C@@H](CC(=O)N2CCN(c3ccc(C(F)(F)F)cc3)CC2)C1(C)C [CBK091330]	93.6	–
Cc1ccccc1C(=O)NCC(=O)Nc1ccc(Cl)nc1 [CBK091335]	103	–
CC(=O)[C@H]1C[C@@H](CC(=O)Nc2ccc(Cl)nc2)C1(C)C [CBK091338]	97.7	–
CC(=O)NCCCCCC(=O)Nc1ccc(Cl)cn1 [CBK091341]	92.3	–
CCC(C)(C)C(=O)Nc1ccc(Br)c2ccccc12 [CBK091342]	79.7	–
O=C(Nc1cc2cccnc2nc1Cl)c1ccc(C(F)(F)F)cc1[N+](=O)[O-] [CBK091348]	89.9	–
CC(=O)[C@H]1C[C@@H](CC(=O)Nc2cc3cccnc3nc2Cl)C1(C)C [CBK091351]	95.7	–
Cc1ccc(S(=O)(=O)NCC(=O)Nc2ccc(Cl)cn2)cc1 [CBK091357]	105	–
N#CC1(c2ccccc2)CCN(C(=O)COc2ccc(F)cc2)CC1 [CBK091387]	–	92.6
COc1ccc(CC(=O)N2CCC(C#N)(c3ccccc3)CC2)c(OC)c1 [CBK091388]	–	91.4
N#CC1(c2ccccc2)CCN(C(=O)c2ccccc2C(=O)c2ccccc2)CC1 [CBK091396]	–	107
N#CC1(c2ccccc2)CCN(C(=O)c2ccc(S(N)(=O)=O)cc2)CC1 [CBK091397]	–	96.5
CCC(=O)N1CCC(C#N)(c2ccccc2)CC1 [CBK091400]	–	87
CC(=O)c1c(C)[nH]c(C(=O)N2CCC(C#N)(c3ccccc3)CC2)c1C [CBK091404]	–	93.3
N#CC1(c2ccccc2)CCN(C(=O)c2ccc3c(c2)no[n+]3[O-])CC1 [CBK091405]	–	92.2
FC(F)(F)c1cccc(Sc2cccc3ccccc23)n1 [CBK091449]	94.8	–
CC(C)(C)OCc1[nH]n(CCc2ccccc2)c(=O)c1Cc1c(Cl)cccc1Cl [CBK091452]	89.3	–
COc1cc(-c2ccc3c(c2)OC2(CCNCC2)O3)ccn1 [CBK091454]	–	106

Compound	viability at 28.5 h, 10 µM [%]	viability at 28.5 h, 10 µM (bulk resorufin, single well) [%]
Cc1ccc(C(=O)N2CN(C(=O)CN(C)CCN(C)C)CC2(C)C)cc1 [CBK091460C]	115	–
CCOC(=O)N1CCC2(CC1)Oc1ccc(-c3ccc(OC)cc3OC)cc1O2 [CBK091467]	–	99.7
Brc1cn2c(-c3ccccc3)cnc2c(N2CCCC2)n1 [CBK091488]	106	–
COc1ccc(CCCC(=O)N2CCN(c3ccccc3OC)CC2)cc1OC [CBK091495]	87.1	–
COc1ccccc1N1CCN(C(=O)C2CC2C)CC1 (stereo not shown) [CBK091496]	108	–
COc1ccccc1N1CCN(C(=O)CN2C(=O)c3ccccc3C2=O)CC1 [CBK091501]	95.5	–
COc1ccccc1N1CCN(C(=O)c2ccccc2C(=O)c2ccccc2)CC1 [CBK091506]	92.9	–
COc1ccccc1N1CCN(C(=O)c2ccc3c(c2)no[n+]3[O-])CC1 [CBK091510]	85	–
COc1cc(C(=O)Nc2ccc3c(c2)COC2(CCN(C(=O)OC(C)(C)C)CC2)O3)cc(OC)c1OC [CBK091527]	–	85.9
COc1ccc(C(=O)Nc2ccc3c(c2)COC2(CCNCC2)O3)c(OC)n1 [CBK091528T]	–	87.5
O=C(Nc1ccc2c(c1)COC1(CCNCC1)O2)c1cc2cc(Cl)ccc2[nH]1 [CBK091529T]	–	71.3
COc1cc(NC(=O)Nc2ccc3c(c2)COC2(CCNCC2)O3)cc(OC)c1OC [CBK091530T]	–	94.9
c1ccc(CNC2CCc3[nH]c4ccccc4c3C2)cc1 (stereo not shown) [CBK091587T]	106	–
CC(C)CC(C(=O)Nc1nnc(C(C)C)s1)N1C(=O)c2ccccc2C1=O (stereo not shown) [CBK091610]	77.3	–
CN(C)S(=O)(=O)c1c(Cl)cccc1Cl [CBK091643]	84	–
CC(=O)N[C@H]1[C@H](Oc2ccc3ccccc3c2)O[C@@H]2COC(C)(C)O[C@H]2[C@@H]1O [CBK091644]	87	–
O=C(Nn1cnnc1)c1cccc(C(=O)Nn2cnnc2)c1 [CBK091759]	99.4	–
COc1ccc(-n2c(SCC(=O)Nc3cccc(C(C)=O)c3)nc3sc(C)c(C)c3c2=O)cc1 [CBK091806]	97.6	–
CN(CC(=O)N1CCCCC1)S(=O)(=O)c1cc(Cl)ccc1Cl [CBK091826]	78.9	–
